Values of other authors, collected in patent US20220400744A1, “POUCHED PRODUCT COMPRISING DISSOLVABLE COMPOSITION” (NICOVENTURES TRADING LIMITED, priority 2021, published 2022).
Where two headings read alike, the source gives them in different places.

Experiments:
[1] = for solubility in water / aqueous environment: water or aqueous environment (e.g., saliva)
[2] = for logP: Table 1, partition coefficient between octanol and water
[3] = when isolated; isomerizes to trans-bixin

CC(/C=C/C=C(C)/C=C/C(=O)O)=C\C=C\C=C(C)\C=C\C=C(C)\C=C\C(=O)O (stereo in doubt) [norbixin, (2E,4E,6E,8E,10E,12E,14E,16E,18E)-4,8,13,17-tetramethylicosa-2,4,6,8,10,12,14,16,18-nonaenedioic acid]
solubility in water / aqueous environment [1]: water soluble

C=C(C)[C@@H]1CCC(C)=C[C@H]1c1c(O)cc(CCCCC)cc1O [CBD, cannabidiol, reference compound]
logP value ([2]; CBD): about 6.5
solubility in water / aqueous environment [1]: insoluble

COC(=O)/C=C/C(C)=C\C=C\C(C)=C\C=C\C=C(C)\C=C\C=C(C)\C=C\C(=O)O [bixin, (2E,4E,6E,8E,10E,12E,14E,16Z,18E)-20-methoxy-4,8,13,17-tetramethyl-20-oxoicosa-2,4,6,8,10,12,14,16,18-nonaenoic acid]
chemical stability [3]: chemically unstable
solubility in fats and alcohols ([1]; fats and alcohols): soluble
solubility in water / aqueous environment [1]: insoluble

CC(C)[C@@H]1CC[C@@H](C)C[C@H]1OC(=O)CCC(=O)O [monomenthyl succinate]
logP [2]: 3

CN1CCCC1c1cccnc1 (centres unmarked) [nicotine, reference compound]
partitioning into octanol ([2]; acidic pH, about 6.5 to about 4, protonated form): lower partitioning into octanol
partitioning into octanol ([2]; alkaline pH, about 7.5 to about 9, free base form): high partitioning into octanol

ethyl benzoic acid
logP [2]: 2.9

isopropyl benzoic acid
logP [2]: 3.5
